# Tests used:
# [1] = test system: Chenopodium album; assay: Farming soil treatment test; type: in vivo; details: soil surface spray prior to weed growth, 30 days
# Method: (§1) Field soil was filled into a 1/6000 are pot followed by seeding with Digitaria ciliaris, Chenopodium album and Amaranthus retroflexus and covering with soil.
# (§2) Wettable powder of Target Compound (I) shown in Table 1 prepared in compliance with the preparation examples were diluted with water to the prescribed amount of chemical and uniformly sprayed onto each soil surface layer using 10 liters of sprayed water per are prior to weed growth following seeding.
# (§3) After treating for 30 days in a glass greenhouse at an average atmospheric temperature of 30° C., the herbicidal efficacy thereof was investigated.
# (§4) Evaluation of herbicidal efficacy was carried out in the same manner as the above-mentioned Test Example 1.
# [2] = test system: Amaranthus retroflexus; assay: Farming soil treatment test; type: in vivo; details: soil surface spray prior to weed growth, 30 days
# Method: as §1, §2, §3, §4
# [3] = test system: Digitaria ciliaris; assay: Farming soil treatment test; type: in vivo; details: soil surface spray prior to weed growth, 30 days
# Method: as §1, §2, §3, §4
# [4] = test system: Chenopodium album; assay: Weed foliar treatment test; type: in vivo; details: foliar spray, 3 weeks
# Method: (§5) Soil was filled into a 1/6000 are pot followed by seeding with Digitaria ciliaris, Chenopodium album and Amaranthus retroflexus, covering with soil, and cultivating in a glass greenhouse at an average atmospheric temperature of 25° C.
# (§6) Wettable powder of Target Compound (I) shown in Table 1 prepared in compliance with the preparation examples were diluted with water to the prescribed amount of chemical and uniformly sprayed onto the weeds using 15 liters of sprayed water per are when Digitaria ciliaris had grown to the 1.0 to 2.0 leaf stage.
# (§7) After treating for 3 weeks in a glass greenhouse at an average atmospheric temperature of 25° C., the herbicidal efficacy thereof was investigated.
# as §4
# [5] = test system: Amaranthus retroflexus; assay: Weed foliar treatment test; type: in vivo; details: foliar spray, 3 weeks
# Method: as §5, §6, §7, §4
# [6] = test system: Digitaria ciliaris; assay: Weed foliar treatment test; type: in vivo; details: foliar spray at 1.0 to 2.0 leaf stage of Digitaria ciliaris, 3 weeks
# Method: as §5, §6, §7, §4
# [7] = test system: Scirpus juncoides; assay: Paddy herbicidal activity test; type: in vivo; details: irrigated paddy pot, 30 days
# Method: (§8) Rice paddy soil was filled into a 1/10000 are pot followed by the addition of suitable amounts of water and chemical fertilizer, kneading, seeding with Echinochloa crus-galli, Monochoria vaginalis and Scirpus juncoides and maintaining in an irrigated state at a water depth of 3 cm.
# (§9) Wettable powder of Target Compound (I) shown in Table 1 prepared in compliance with the preparation examples were diluted with a suitable amount of water, rice plants in the 2.0 leaf stage were transplanted during 3.5 leaf stage of Echinochloa crus-galli, and treated by dropping in chemical in the prescribed amount per are using a pipette.
# as §3
# (§10) Evaluation of herbicidal efficacy was carried out by comparing growth inhibition rate (%) with an untreated group, while evaluation of phytotoxicity was carried out by comparing growth inhibition rate (%) with the state of a complete eradication group, and were evaluated at 11 levels indicated below.
# [8] = test system: Echinochloa crus-galli; assay: Paddy herbicidal activity test; type: in vivo; details: irrigated paddy pot, treated at 3.5 leaf stage of Echinochloa crus-galli, 30 days
# Method: as §8, §9, §3, §10
# [9] = test system: Monochoria vaginalis; assay: Paddy herbicidal activity test; type: in vivo; details: irrigated paddy pot, 30 days
# Method: as §8, §9, §3, §10
# [10] = test system: Rice plants; assay: Paddy herbicidal activity test, phytotoxicity to transplanted rice; type: in vivo; details: rice transplanted at 2.0 leaf stage, 30 days
# Method: as §8, §9, §3, §10
SMILES,herbicidal efficacy (growth inhibition level) Chenopodium album ([1]; 5 g a.i./10 a),herbicidal efficacy (growth inhibition level) Chenopodium album ([1]; 10 g a.i./10 a),herbicidal efficacy (growth inhibition level) Amaranthus retroflexus ([2]; 5 g a.i./10 a),herbicidal efficacy (growth inhibition level) Amaranthus retroflexus ([2]; 10 g a.i./10 a),herbicidal efficacy (growth inhibition level) Digitaria ciliaris ([3]; 5 g a.i./10 a),herbicidal efficacy (growth inhibition level) Digitaria ciliaris ([3]; 10 g a.i./10 a),herbicidal efficacy (growth inhibition level) Chenopodium album ([4]; 5 g a.i./10 a),herbicidal efficacy (growth inhibition level) Chenopodium album ([4]; 10 g a.i./10 a),herbicidal efficacy (growth inhibition level) Amaranthus retroflexus ([5]; 5 g a.i./10 a),herbicidal efficacy (growth inhibition level) Amaranthus retroflexus ([5]; 10 g a.i./10 a),herbicidal efficacy (growth inhibition level) Digitaria ciliaris ([6]; 5 g a.i./10 a),herbicidal efficacy (growth inhibition level) Digitaria ciliaris ([6]; 10 g a.i./10 a),herbicidal efficacy (growth inhibition level) Scirpus juncoides ([7]; 1 g a.i./10 a),herbicidal efficacy (growth inhibition level) Scirpus juncoides ([7]; 5 g a.i./10 a),herbicidal efficacy (growth inhibition level) Echinochloa crus-galli ([8]; 1 g a.i./10 a),herbicidal efficacy (growth inhibition level) Echinochloa crus-galli ([8]; 5 g a.i./10 a),herbicidal efficacy (growth inhibition level) Monochoria vaginalis ([9]; 1 g a.i./10 a),herbicidal efficacy (growth inhibition level) Monochoria vaginalis ([9]; 5 g a.i./10 a),phytotoxicity (growth inhibition level) Rice plants ([10]; 1 g a.i./10 a),phytotoxicity (growth inhibition level) Rice plants ([10]; 5 g a.i./10 a),further results
"C#CCCNc1c(C#N)cnn1-c1nn2c(c1Cl)CCCC2 [Compound 1, 1-(3-chloro-4,5,6,7-tetrahydropyrazolo[1,5-a]pyridin-2-yl)-5-(but-3-ynylamino)pyrazole-4-carbonitrile]",10 (10: 100%),10 (10: 100%),10 (10: 100%),10 (10: 100%),10 (10: 100%),10 (10: 100%),10 (10: 100%),10 (10: 100%),10 (10: 100%),10 (10: 100%),10 (10: 100%),10 (10: 100%),8 (8: 80% to less than 90%),10 (10: 100%),9 (9: 90% to less than 100%),10 (10: 100%),9 (9: 90% to less than 100%),10 (10: 100%),0 (0 (exponent): 0% to less than 10% (growth inhibition rate)),1 (1: 10% to less than 20%),melting point: 130 to 131 °C
"CC#CCNc1c(C#N)cnn1-c1nn2c(c1Cl)CCCC2 [4.131, 4.132]",3 (3: 30% to less than 40%),4 (4: 40% to less than 50%),4 (4: 40% to less than 50%),5 (5: 50% to less than 60%),3 (3: 30% to less than 40%),4 (4: 40% to less than 50%),4 (4: 40% to less than 50%),5 (5: 50% to less than 60%),4 (4: 40% to less than 50%),6 (6: 60% to less than 70%),3 (3: 30% to less than 40%),4 (4: 40% to less than 50%),1 (1: 10% to less than 20%),3 (3: 30% to less than 40%),3 (3: 30% to less than 40%),4 (4: 40% to less than 50%),0 (0 (exponent): 0% to less than 10% (growth inhibition rate)),1 (1: 10% to less than 20%),1 (1: 10% to less than 20%),1 (1: 10% to less than 20%),–
"C#CCNc1c(C#N)cnn1-c1nn2c(c1Cl)CCCC2 [4.85, 4.156]",4 (4: 40% to less than 50%),5 (5: 50% to less than 60%),3 (3: 30% to less than 40%),6 (6: 60% to less than 70%),3 (3: 30% to less than 40%),4 (4: 40% to less than 50%),5 (5: 50% to less than 60%),6 (6: 60% to less than 70%),4 (4: 40% to less than 50%),6 (6: 60% to less than 70%),3 (3: 30% to less than 40%),5 (5: 50% to less than 60%),0 (0 (exponent): 0% to less than 10% (growth inhibition rate)),1 (1: 10% to less than 20%),2 (2: 20% to less than 30%),3 (3: 30% to less than 40%),1 (1: 10% to less than 20%),3 (3: 30% to less than 40%),2 (2: 20% to less than 30%),2 (2: 20% to less than 30%),–
"C#CCN(C)c1c(C#N)cnn1-c1nn2c(c1Cl)CCCC2 [Compound 4.73, 1-(3-chloro-4,5,6,7-tetrahydropyrazolo[1,5-a]pyridin-2-yl)-5-[methyl(prop-2-ynyl)amino]pyrazole-4-carbonitrile]",1 (1: 10% to less than 20%),2 (2: 20% to less than 30%),1 (1: 10% to less than 20%),2 (2: 20% to less than 30%),0 (0 (exponent): 0% to less than 10% (growth inhibition rate)),1 (1: 10% to less than 20%),2 (2: 20% to less than 30%),3 (3: 30% to less than 40%),3 (3: 30% to less than 40%),3 (3: 30% to less than 40%),1 (1: 10% to less than 20%),2 (2: 20% to less than 30%),0 (0 (exponent): 0% to less than 10% (growth inhibition rate)),1 (1: 10% to less than 20%),2 (2: 20% to less than 30%),4 (4: 40% to less than 50%),3 (3: 30% to less than 40%),4 (4: 40% to less than 50%),0 (0 (exponent): 0% to less than 10% (growth inhibition rate)),1 (1: 10% to less than 20%),–

# Reference: patent US9593112B2, “Substituted pyrazolylpyrazole derivative and use of same as herbicide” (KYOYU AGRI CO., LTD., priority 2013, dated 2017)
